Tests used:
[1] = Particle size measurements using photon correlation spectroscopy (mean Z average diameter, polydispersity); format: physicochemical; settings: for interaction with poloxamer: individual benzalkonium chloride analogs, thermal cycling (Example 1)
Source text: The following examples employ a Malvern 3000 HS Zetasizer to measure particle size. Particles with diameters that range from 1 to 5000 nm, can be measured using the method of photon correlation spectroscopy (PCS). Particles in this size range are in constant random thermal (or Brownian) motion. This motion causes the intensity of light scattered from the particles to form a moving speckle pattern which, with the use of optics and a photomultiplier, can be detected as a change in intensity with time. Large particles move more slowly than small particles, therefore the rate of fluctuation of light scattered from large particles is slower. PCS uses the rate of change of these light fluctuations to determine the size distribution of the particles scattering light. Data is plotted as the auto-correlation function (counts per correlator against delay time). Analysis of this function obtained over time, with a sufficient number of data points, enables the translational diffusion coefficient of the particles undergoing Brownian motion to be calculated. From this coefficient, together with the temperature and viscosity of the suspending liquid, the particle size can be calculated. For aqueous dispersions, the default set-up of the Malvern 3000 HS Zetasizer calculates the viscosity from the temperature. The best single measurement to describe the size of a poloxamer formulation is the mean Z average or the hydrodynamic diameter, which is calculated using cumulants analysis. The polydispersity describes the width of the distribution.
The size of the particles produced was determined using photon correlation spectroscopy. The particle size as reported herein refers to the mean Z average diameter also known as the hydrodynamic diameter. The surface charge of the particles was also determined using micro-electrophoresis.

[2] = Dissolution characteristics of BAK homologs in PBS; format: physicochemical
Source text: Stock solutions of benzyldimethyldodecylammonium chloride (BAK C12, Fluka Chemical Corp., Milwaukee, Wis., cat #53233), benzyldimethyltetradecylammonium chloride (BAK C14, TCI America, Portland, Oreg., cat #A0208), benzyldimethylhexadecyllammonium chloride (BAK C16, TCI America, Portland, Oreg., cat #B0237) and benzyldimethyloctadecylammonium chloride (BAK C18, TCI America, Portland, Oreg., cat #B1297) were made in PBS.

[3] = Example 9, 269 mg in 70 ml sterile water for injection, homogenized/extruded 10,000 psi, 15° C., 5 passes

Structure (SMILES)	Particle size [1, 3]	polydispersity [1, 3]	interaction with poloxamer [1]	formation of cell delivery particles with CRL-1005 and DNA ([1]; thermal cycling method)	Dissolution Temperature ([2]; Concentration in PBS 5 mM)	Dissolution Temperature ([2]; Concentration in PBS 2 mM)	Dissolution Temperature ([2]; Concentration in PBS 1 mM)	formation of small, uniform cell delivery particles with CRL-1005 ([1]; Example 13, thermal cycling method)
CCCCCCCCCCCCCCOCC(C[N+](C)(C)CCO)OCCCCCCCCCCCCCC.[Br-] (racemic) [DMRIE, (±)-N-(2-hydroxyethyl)-N,N-dimethyl-2,3-bis(tetradecyloxy)-1-propanaminium bromide]	65 nm	0.21	–	–	–	–	–	–
CCCCCCCCCCCC[N+](C)(C)Cc1ccccc1.[Cl-] [BAK C12, benzyldimethyldodecylammonium chloride]	–	–	does not interact with poloxamer	do not form cell delivery particles	–	–	–	–
CCCCCCCCCCCCCC[N+](C)(C)Cc1ccccc1.[Cl-] [BAK C14, benzyldimethyltetradecylammonium chloride]	–	–	interact with poloxamer to produce submicron particles with a positive surface charge	–	25 °C	–	–	–
CCCCCCCCCCCCCCCC[N+](C)(C)Cc1ccccc1.[Cl-] [BAK C16, benzyldimethylhexadecyllammonium chloride]	–	–	interact with poloxamer to produce submicron particles with a positive surface charge	–	45 °C	45 °C	–	–
CCCCCCCCCCCCCCCCCC[N+](C)(C)Cc1ccccc1.[Cl-] [BAK C18, benzyldimethyloctadecylammonium chloride]	–	–	does interact with poloxamer to produce large micron sized particles with a positive surface charge	do not form cell delivery particles	45 °C	45 °C	45 °C	does not form small nor uniform cell delivery particles

Reference: patent publication US20060134221A1, “Methods for producing block copolymer/amphiphilic particles” (priority 2004, published 2006)
